The values below come from patent US20240277705A1, “DOSAGE REGIMENS FOR ECUBECTEDIN” (PHARMA MAR S.A., priority 2021, published 2024).

“Also recorded” adds a separate entry of the source.

Data set [1] can be described thus: Phase I dose-escalating study, pharmacokinetics. The data set is classed as in vivo. An excerpt:
(§1) Open-label, dose-escalating, phase I trial of PM14 administered as a 3-hour infusion i.v. every 3 weeks (q3wk) in human patients (pts) with advanced solid tumors, adequate organ function and ECOG PS score of 0-1. Two schedules were explored: Schedule A (Day 1 [D1], Day 8 [D8]) and Schedule B (D1).
Secondary Endpoints • Safety: patients will be evaluable for safety if they have received at least one partial infusion of PM14. AEs will be graded according to the NCI-CTCAE v.4. Additionally, treatment-related discontinuations and treatment compliance (dose reduction, skipped doses and/or treatment delays due to AEs), will be described. • Pharmacokinetics: PK analyses will be evaluated in plasma and urine by standard non-compartmental analysis (compartmental modeling may be performed if appropriate). Plasma samples for PM14 PK analysis will be obtained in Cycle 1 from all patients, and also in Cycle 2 from patients treated during Step D of the CRM. In addition, the urine produced during Day 1 of Cycle 1 and Cycle 2 will be collected from patients treated during Step D of the CRM. • Pharmacogenetics: the presence or absence of PGt polymorphisms in genes relevant for PM14 disposition (distribution, metabolism and excretion) from a single blood sample collected at any time during the trial (but preferably at the same time as the pre-treatment PK sample on Day 1 of Cycle 1) will be assessed to explain individual variability in main PK parameters. • Pharmacogenomics: this exploratory analysis will be performed in those patients who sign the Informed Consent Form (ICF) for the PGx study. mRNA or protein expression levels of factors involved in DNA repair mechanisms, or related to the mechanism of action of PM14, will be evaluated from available tumor tissue samples obtained at diagnosis or relapse and in cell-free ctDNA. Their mutational status might also be analyzed, if relevant. Their correlation with the clinical response and outcome after treatment will be assessed. • Efficacy: patients will be evaluable for efficacy if they receive at least one complete infusion of PM14 and have at least one clinical or radiological tumor assessment as per RECIST v.1.1 or serum markers, or if they are considered to have failed treatment. Treatment failure will be defined as clinical deterioration, death due to PD or treatment discontinuation due to any treatment-related toxicity before any appropriate tumor assessments have been performed.

Data set [2] has as its system RXF 486L (hypernephroma, poorly differentiated). Description: Propidium iodide monolayer cell proliferation assay, RXF 486L. The data set is classed as cell-based, human. The following applies: four days of treatment. How it is done: (§2) Working stock solution of PM14 was prepared in DMSO at a concentration of 1.042 mM and small aliquots were stored at −20° C. On each day of an experiment, a frozen aliquot of the working stock solution was thawed and stored at room temperature prior to and during treatment.
(§3) Subsequent dilutions were done with complete RPMI 1640 cell culture medium. DMSO stock solutions were first diluted 1:22 (corresponding to 4.5% v/v DMSO). Starting with this solution, serial dilutions in half-log steps with cell culture medium were done using an intermediate dilution plate. Finally, 10 μl taken from the intermediate dilution plate were transferred to 140 μl/well of the cell culture plate. […]
(§4) Cell proliferation assay: A modified propidium iodide (PI) based monolayer assay was used to assess the anti-cancer activity of the compounds (Dengler WA, Schulte J, Berger DP, Mertelsmann R, Fiebig HH, Anti-Cancer Drugs 1995, 6: 522-532). Briefly, cells were harvested from exponential phase cultures, counted and plated in 96 well flat-bottom microtiter plates at a cell density of 4,000 to 30,000 cells/well dependent on the cell line's growth rate. […] After an incubation period of 1-2 hours at room temperature, fluorescence (FU) was measured using the Enspire Multimode Plate Reader (excitation A=530 nm, emission A=620 nm) to quantify the amount of attached viable cells. […]

For a further data set, the system named is advanced solid tumors. Description: Phase I dose-escalating study, antitumor activity. The data set is classed as in vivo, human. The following applies: patients, various cancers.
Source text: Antitumor response will be assessed using the RECIST v.1.1 and/or serum tumor markers as appropriate (see above).
as §1
Secondary Endpoints • Safety: patients will be evaluable for safety if they have received at least one partial infusion of PM14. AEs will be graded according to the NCI-CTCAE v.4. Additionally, treatment-related discontinuations and treatment compliance (dose reduction, skipped doses and/or treatment delays due to AEs), will be described. • Pharmacokinetics: PK analyses will be evaluated in plasma and urine by standard non-compartmental analysis (compartmental modeling may be performed if appropriate). […] Their mutational status might also be analyzed, if relevant. Their correlation with the clinical response and outcome after treatment will be assessed. • Efficacy: patients will be evaluable for efficacy if they receive at least one complete infusion of PM14 and have at least one clinical or radiological tumor assessment as per RECIST v.1.1 or serum markers, or if they are considered to have failed treatment. […]

Another data set has as its system MEXF 462NL (melanoma). Description: Propidium iodide monolayer cell proliferation assay, MEXF 462NL. The data set is classed as cell-based, human. The conditions noted are these: MEXL 462NL. How it is done: Cell proliferation assay: A modified propidium iodide (PI) based monolayer assay was used to assess the anti-cancer activity of the compounds (Dengler WA, Schulte J, Berger DP, Mertelsmann R, Fiebig HH, Anti-Cancer Drugs 1995, 6: 522-532). Briefly, cells were harvested from exponential phase cultures, counted and plated in 96 well flat-bottom microtiter plates at a cell density of 4,000 to 30,000 cells/well dependent on the cell line's growth rate. After a 24 h recovery period, to allow the cells to resume exponential growth, 10 μl of culture medium (4 control wells/cell line/plate) or of culture medium with test compounds were added. PM14 was applied at ten concentrations in half-log increments in duplicates up to 3.16 pM and treatment continued for four days. […] After an incubation period of 1-2 hours at room temperature, fluorescence (FU) was measured using the Enspire Multimode Plate Reader (excitation A=530 nm, emission A=620 nm) to quantify the amount of attached viable cells.
IC50 and IC70 values were calculated by 4 parameter non-linear curve fit using Oncotest Warehouse Software. […]
IC50 values were determined as described in Example 2, but using the following human cancer cell lines: • MEXF 276L (melanoma) • MEXF 462NL (melanoma) • MEXF 1341L (melanoma)

The subject of data set [3] is RXF 1781L (hypernephroma, poorly differentiated). Description: Propidium iodide monolayer cell proliferation assay, RXF 1781L. The data set is classed as cell-based, human. The conditions noted are these: four days of treatment. How it is done:
as §2, §3, §4

The mark [4] stands for this setting: Homo sapiens, 96 h, read-out: IC50, μM (geometric mean).

Broadly, the Vd is a proportionality between amount in the body and measured concentration, not a real space. Higher therefore signals extensive tissue distribution. The term clearance denotes a measure of how efficiently the substance is removed, as volume per time. For orientation: half-life means how long it takes for the measured level to halve. Low readings indicate rapid decline, high ones slow decline. A word on the IC50: it is the point on the concentration scale where inhibition reaches its midpoint. In data set [1] (human, in vivo), `COc1c(C)cc2c(c1O)[C@@H]1[C@@H]3[C@@H]4SC[C@]5(N[C@H](CO)Cc6c5[nH]c5ccccc65)C(=O)OC[C@@H](c5c6c(c(C)c(OC(C)=O)c54)OCO6)N3[C@@H](O)[C@H](C2)N1C` [PM14, ECUBECTEDIN] gave a Vd of 128 L. For the same compound, in data set [1] (human, in vivo), the clearance is 98.3 mL/min. The half-life in data set [1] (human, in vivo, half-life) was 16 h; in data set [1] (human, in vivo, terminal half-life, median (range)), 15.9 h. In addition, the “administered dose recovered in urine” value in data set [1] (patients) is on record as “Less than 1.6%”. In addition, in data set [1] (patients), the “distribution into peripheral tissues” value is on record as “moderate”. Also, the hepatic extraction ratio entry in data set [1] (patients) is on record as “low”. Moreover, the “pharmacokinetics, dose linearity” value in data set [1] (tested doses 0.25-5.6 mg/rn^2) is “Linear pharmacokinetics”. Also, the IC50 in data set [2] (setting [4]) was 0.002 µM; in the data set on MEXF 462NL (melanoma) (Homo sapiens, MEXF 462NL, read-out: IC50, μM (geometric mean)), 0.0001 µM; in data set [3] (setting [4]), 0.004 µM. The results for the “IC70, μM (geometric mean)” value (in data set [2]; with MEXF 462NL (melanoma); in data set [3]) were 0.002 µM, 0.0001 µM and 0.005 µM, respectively. In addition, the antitumor response entry in the data set with advanced solid tumors is “prolonged tumor stabilizations; also recorded: stable disease (SD)”.
